Among the test systems are UO-31; HOP-92; SNB-19; SW-620; RPMI-8226; HCT-15; HL-60; NCI-H23; HT-29; SF-295; SN12C; MDA-N; MDA-MB-231; SF-268; 786-0; CCRF-CEM; NCI/ADR-RES; DU-145; OVCAR-3; HOP-62.
Holding throughout (assay): growth of human tumour cells (NCI), 48 h

Ten compounds from ChEMBL document CHEMBL1201862, “PubChem BioAssay data set” (2004) can be followed below.

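Cultured in 96-well plates, cells were exposed to test compound for 48 hours across five concentrations. GI50 = concentration required for 50% inhibition of growth.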 The source made the active and inactive calls. Rule as the data show it: active = GI50 up to about 1.1 µM and inactive = higher.

For the compound `O=C(OCC1CCCN2CCCCC12)c1cccnc1` (centres undefined), the GI50 is > 100 µM (inactive) in the test on UO-31; > 100 µM (inactive) in the test with HOP-92; > 100 µM (inactive) in the test with SNB-19; > 100 µM (inactive) in the test on SW-620; > 100 µM (inactive) in the test on RPMI-8226; more than 100 µM in the test on HCT-15. The GI50 with HL-60, in the test with NCI-H23, with HT-29, with SF-295, in the test with SN12C and in the test with MDA-N was > 100 µM (inactive) in each case. The GI50 in the test on MDA-MB-231, in the test with SF-268, in the test on 786-0, in the test on CCRF-CEM, in the test on NCI/ADR-RES and with DU-145 was > 100 µM (inactive) each time.
With `COC(=O)c1nc2c3c(cccc3c1C(=O)OC)Nc1ccccc1-2`, the GI50 in the test with UO-31 was 18.8 µM (inactive); with HOP-92, 16.9 µM (inactive); with SNB-19, 51.3 µM (inactive); in the test with SW-620, 40.7 µM (inactive); in the test on RPMI-8226, 53 µM (inactive); in the test on HL-60 it was 53 µM (inactive). For the same compound, the GI50 is 36.6 µM (inactive) in the test on OVCAR-3; 23.6 µM (inactive) with HOP-62; 36 µM (inactive) in the test on NCI-H23; 34.8 µM (inactive) in the test with HT-29; 21.1 µM (inactive) in the test with SF-295; 33.4 µM (inactive) in the test with SN12C. Moreover, the GI50 in the test on MDA-N is 46.2 µM (inactive); in the test with MDA-MB-231 it was 23.8 µM (inactive); with SF-268, 38.5 µM (inactive); in the test with 786-0 it was 27.5 µM (inactive); in the test with CCRF-CEM, 13.2 µM (inactive); with NCI/ADR-RES, 17.8 µM (inactive). Moreover, in the test with DU-145, the GI50 is 41.6 µM (inactive).
With `NC(=O)/C=C/NC(=O)/C=N\O`, the GI50 is > 100 µM (inactive) in the test on UO-31; > 100 µM (inactive) with HOP-92; > 100 µM (inactive) with SNB-19; > 100 µM (inactive) in the test with SW-620; > 100 µM (inactive) in the test on RPMI-8226; more than 100 µM in the test on HCT-15. Also, the GI50 in the test with HL-60, in the test on OVCAR-3, in the test with HOP-62, with HT-29, in the test on SF-295 and in the test on SN12C was > 100 µM (inactive) in each case. Also, the GI50 in the test with MDA-N, with MDA-MB-231, in the test on SF-268, in the test with 786-0, in the test with CCRF-CEM and with NCI/ADR-RES was > 100 µM (inactive) in each case. Besides, the GI50 in the test on DU-145 is > 100 µM (inactive).
For `C[C@@H]1CC[C@@]2(OC1)O[C@H]1C[C@H]3[C@@H]4CC[C@H]5C[C@@H](OC6OC(CO)C(OC7OC(CO)C(O)C(OC8OCC(O)C(O)C8O)C7OC7OC(CO)C(O)C(O)C7O)C(O)C6O)[C@H](O)C[C@]5(C)[C@H]4CC[C@]3(C)[C@H]1[C@@H]2C` (some centres undefined), the GI50 is 4.52 µM (inactive) in the test with UO-31; 23.6 µM (inactive) with HOP-92; 10.1 µM (inactive) with SNB-19; 4.19 µM (inactive) in the test with SW-620; 1.85 µM (inactive) in the test with RPMI-8226; 3.4 µM in the test with HCT-15. The GI50 was 1.49 µM (inactive) with HL-60; 2.88 µM (inactive) with OVCAR-3; 1.42 µM (inactive) in the test with HOP-62; 2.11 µM (inactive) with NCI-H23; 1.75 µM (inactive) in the test with HT-29; 3.89 µM (inactive) with SF-295. The GI50 in the test on MDA-N is 10.8 µM (inactive); in the test with MDA-MB-231, 1.76 µM (inactive); in the test with SF-268, 7.71 µM (inactive); with 786-0, > 10 µM (inactive); in the test on CCRF-CEM, 0.693 µM (active); with NCI/ADR-RES it was 2.52 µM (inactive). In the test on DU-145, the GI50 is 2.42 µM (inactive).
In the case of `COC(=O)C[C@H]1[C@]2(C)C3=C(C)[C@H](c4ccoc4)CC3O[C@@H]2[C@@H]2OC(=O)[C@]3(C)CCC(=O)[C@@]1(C)[C@@H]23` (some centres undefined), the GI50 with UO-31 was 54.5 µM (inactive); with HOP-92, > 100 µM (inactive); with SW-620 it was 50.6 µM (inactive); in the test with RPMI-8226, 19.1 µM (inactive); in the test with HCT-15 it was 38.8 µM; in the test on HL-60 it was 22.8 µM (inactive). Moreover, the GI50 in the test on OVCAR-3 was 53 µM (inactive); in the test on HOP-62, > 100 µM (inactive); in the test on NCI-H23 it was 46.5 µM (inactive); in the test with HT-29, 33.8 µM (inactive); in the test with SF-295, > 100 µM (inactive); in the test with SN12C, 69.7 µM (inactive). Moreover, the GI50 with MDA-N is 49.9 µM (inactive); with MDA-MB-231 it was > 100 µM (inactive); with SF-268, 48 µM (inactive); in the test with 786-0 it was 32.3 µM (inactive); in the test with CCRF-CEM it was 19.9 µM (inactive); with NCI/ADR-RES, 48.6 µM (inactive). Further, in the test on DU-145, the GI50 was 32.4 µM (inactive).
For the compound `C=C1C/C(=C/C)C(=O)O[C@@H]2CCN3CC=C(COC(=O)[C@]1(C)O)[C@H]23` [SENECIPHYLLINE], the GI50 in the test with UO-31 was > 100 µM (inactive); with HOP-92 it was > 100 µM (inactive); in the test on SNB-19, > 100 µM (inactive); with SW-620, > 100 µM (inactive); in the test with RPMI-8226 it was > 100 µM (inactive); with HCT-15, more than 100 µM. The GI50 in the test with HL-60, in the test with OVCAR-3, with HOP-62, in the test on NCI-H23, with HT-29 and in the test on SF-295 was > 100 µM (inactive) each time. For the same compound, the GI50 in the test on MDA-N, with MDA-MB-231, with SF-268, in the test with 786-0, in the test on CCRF-CEM and with NCI/ADR-RES was > 100 µM (inactive) in each case. Also, the GI50 with DU-145 is > 100 µM (inactive).
`CC1(C)N=C(N)N=C(N)N1c1cccc(CSc2ccccc2)c1`: the GI50 was > 100 µM (inactive) with UO-31; 32 µM (inactive) in the test with HOP-92; 0.218 µM (active) in the test with SNB-19; 7.59 µM (inactive) in the test with SW-620; 0.944 µM (active) with RPMI-8226; 50.4 µM with HCT-15. Moreover, the GI50 in the test with HL-60 is < 0.01 µM (active); with OVCAR-3, 0.991 µM (active); with HOP-62, 6.4 µM (inactive); in the test with NCI-H23, 0.619 µM (active); in the test with HT-29, 0.0791 µM (active); with SF-295, 1.1 µM (active). Further, the GI50 is 0.0838 µM (active) in the test on SN12C; 0.037 µM (active) in the test with MDA-N; > 100 µM (inactive) in the test with MDA-MB-231; 0.0363 µM (active) in the test with SF-268; 0.0929 µM (active) in the test on 786-0; > 100 µM (inactive) with NCI/ADR-RES. For the same compound, in the test on DU-145, the GI50 was 0.592 µM (active).
With `C[C@]12CC[C@H]3[C@@H](CC[C@]4(O)C[C@@H](O)CC[C@]34/C=N/O)[C@@]1(O)CC[C@@H]2C1=COC(=O)C1`, the GI50 was 0.112 µM (active) in the test on UO-31; 0.2 µM (active) in the test on HOP-92; 0.673 µM (active) in the test on SNB-19; 0.191 µM (active) in the test with SW-620; 0.258 µM (active) in the test on RPMI-8226; 0.158 µM in the test on HCT-15. Besides, the GI50 in the test with HL-60 was 0.131 µM (active); with OVCAR-3, 0.0472 µM (active); with HOP-62, 0.102 µM (active); in the test with NCI-H23 it was 0.0644 µM (active); in the test on HT-29 it was 0.146 µM (active); in the test with SF-295, 0.0545 µM (active). The GI50 in the test with SN12C was 0.251 µM (active); with MDA-N, 0.191 µM (active); in the test with MDA-MB-231, 0.589 µM (active); in the test on SF-268 it was 0.0728 µM (active); in the test with 786-0, 0.102 µM (active); with NCI/ADR-RES it was 0.141 µM (active). Moreover, in the test on DU-145, the GI50 is 0.0637 µM (active).
`COc1ccc2c(-c3csc(-c4c[nH]c5ccc(Br)cc45)n3)c[nH]c2c1`: the GI50 with UO-31 was > 100 µM (inactive); in the test on HOP-92, 64.3 µM (inactive); with SNB-19 it was > 100 µM (inactive); in the test on SW-620, > 100 µM (inactive); in the test on RPMI-8226, 27.1 µM (inactive); with HCT-15, 7.53 µM. In addition, the GI50 in the test with OVCAR-3 is > 100 µM (inactive); with HOP-62 it was 62.4 µM (inactive); with NCI-H23, 64.9 µM (inactive); in the test with HT-29 it was 77.6 µM (inactive); with SF-295, 73.5 µM (inactive); with SN12C, 58.1 µM (inactive). Further, the GI50 in the test with MDA-N was 8.26 µM (inactive); with MDA-MB-231 it was 13.9 µM (inactive); in the test with SF-268, 25.9 µM (inactive); in the test with 786-0, 27.4 µM (inactive); in the test on CCRF-CEM, 27.7 µM (inactive); with NCI/ADR-RES, 90.6 µM (inactive). Further, in the test with DU-145, the GI50 is > 100 µM (inactive).
Consider `Cc1c[nH]c2c(O)cc3c(c12)[C@H](CCl)CN3C(=O)c1cc2cc(NC(=O)Nc3ccc4[nH]c(C(=O)N5C[C@@H](CCl)c6c5cc(O)c5[nH]cc(C)c65)cc4c3)ccc2[nH]1` [BIZELESIN], for which the GI50 in the test on UO-31 was < 0.001 µM (active); in the test with HOP-92, 48.5 µM (inactive); in the test with SNB-19, 28.5 µM (inactive); in the test with SW-620, 17.4 µM (inactive); in the test on RPMI-8226 it was 0.00131 µM (active); with HL-60, 0.00288 µM (active). Further, the GI50 is 18.6 µM (inactive) in the test on OVCAR-3; 1.05 µM (active) in the test on HOP-62; 1.9 µM (inactive) in the test on NCI-H23; 27.1 µM (inactive) with HT-29; 6.35 µM (inactive) in the test on SF-295; 0.378 µM (active) with SN12C. The GI50 with MDA-N was 22.2 µM (inactive); in the test with MDA-MB-231 it was 26.5 µM (inactive); in the test on SF-268 it was 2.82 µM (inactive); with 786-0, 4.9 µM (inactive); in the test on CCRF-CEM, 0.274 µM (active); in the test on NCI/ADR-RES, 0.071 µM (active). Further, the GI50 in the test on DU-145 was 3.65 µM (inactive).
